Experimental data as given in patent US5075296A, “Azacyclooctadiene compound and pharmaceutical use” (Eisai Co., Ltd., priority 1989, dated 1991).
≈ marks a conversion by molar mass, not a printed value.

Assays:
KB cells = experiment: antitumor activity in vitro with cultured KB cells (growth inhibition, Coulter counter); assay type: cell-based, human; settings: four days, 37° C., MEM - 10% calf serum; for ED50 (concentration at which the growth inhibition was substantially 50% based on the control): 5760 min; for IC50: Homo sapiens, KB, 96 h, read-out: ED50 (concentration at which the growth inhibition was substantially 50% based on the control)
Experimental: The antitumor activity of the compounds of the present invention was determined in vitro with cultured KB cells.
The experiment was conducted by using KB derived from a human epidermoid carcinoma of the mouth and Eagle's minimal essential medium (MEM) - 10% calf serum at 37° C. in a carbon dioxide incubator (5% CO2).
KB cells were diluted at a dilution rate of 1×10^4 /ml medium. 2 ml of the sample thus formed was placed in a 30-mm plastic dish so that the final concentration of the compounds of the present invention would be 100, 30, 10, 3 or 1 μg/ml. After four days, the cells were peeled from the dish surface with trypsin and the number of the cells was counted with a Coulter counter.
The criterion according to NCI (U.S.A.) was employed to determine the concentration (ED50) at which the growth inhibition was substantially 50% based on the control.

S-180 salcoma cells = experiment: antitumor activity in ICR mice inoculated with S-180 salcoma cells (increase in life-span); assay type: in vivo, mouse (female ICR mice); settings: intra-peritoneal, once a day Day 1 to 5; for Number of surviving mice: observation period 52 days, saline control 0/12, DMSO 0/7; for Prolongation extent of life: saline control 0, DMSO -11; for Average days of the prolongation of life: saline control 13.3 ± 3.7, DMSO 12.0 ± 3.0
Experimental: Female ICR mice being 6 weeks old were inoculated abdominally with 0.2 ml of a sample of cell suspension in PBS containing 5×10^5 S-180 salcoma cells, on Day 0. Once a day for 5 days (Day 1 to 5) from the next day, they were inoculated abdominally with the above shown compounds of A-IV-b, B-VI-6 and D-I-a, respectively, dispersed in 6 wt. % dimethylsulfoxide solution, with intra-peritoneal injection of 25 or 50 mg/kg. A saline and a solvent were used for reference control. 12 to 7 mice were used in the saline control and the drug test, respectively. Antitumor activity was determined by the mean survival time (prolongation of life) of the test group (T) with that of the control group (C) and is shown in terms of an increase in life-span (prolongation extent of life), that is, ((T/C)×100%). The observation period was 52 days and survivors were excluded from calculation.

COc1cc(C2c3cc4c(cc3C(N=[N+]=[N-])C3COC(=O)N23)OCO4)cc(OC)c1OC [D-X-a]
ED50 (concentration at which the growth inhibition was substantially 50% based on the control) (KB cells): 0.68 µg/mL (≈ 1.54 µM)

COc1cc2c(c(OC)c1OC)-c1cc3c(cc1CC1CN(CC(=O)O)C(=O)N1C2)OCO3 (stereo not shown) [B-VIII-b]
IC50 (KB cells): 5.4 µg/mL (≈ 11.8 µM)

COc1cc2c(c(OC)c1OC)-c1cc3c(cc1CC(CO)N(C=O)C2)OCO3 (stereo not shown) [A-VII-a]
IC50 (KB cells): < 0.3 µg/mL

COc1c(O)cc2c(c1OC)-c1cc3c(cc1CC1COC(=O)N1C2)OCO3 (stereo not shown) [A-VIII-a]
IC50 (KB cells): 17 µg/mL (≈ 44.1 µM)

COc1cc2c(c(OC)c1OC)-c1cc3c(cc1CC(CO)N(C)C2)OCO3 (stereo not shown) [A-V-b]
ED50 (concentration at which the growth inhibition was substantially 50% based on the control) (KB cells): 1.1 µg/mL (≈ 2.84 µM)

COc1cc2c(c(OC)c1OC)-c1cc3c(cc1CC1COC(=O)N1C2)OCO3 (stereo not shown) [A-IV-b]
ED50 (concentration at which the growth inhibition was substantially 50% based on the control) (KB cells): < 0.3 µg/mL
Number of surviving mice (S-180 salcoma cells; 25 mg/kg): 0/7
Prolongation extent of life (S-180 salcoma cells; 25 mg/kg): -4%
Average days of the prolongation of life (S-180 salcoma cells; 25 mg/kg): 12.9 ± 2.3 days
Number of surviving mice (S-180 salcoma cells; 50 mg/kg): 0/7
Prolongation extent of life (S-180 salcoma cells; 50 mg/kg): 40%
Average days of the prolongation of life (S-180 salcoma cells; 50 mg/kg): 19.0 ± 5.5 days

COc1cc2c(c(OC)c1O)-c1cc3c(cc1CC1COC(=O)N1C2)OCO3 (stereo not shown) [A-IX-a]
IC50 (KB cells): 50 µg/mL (≈ 130 µM)

COc1cc2c(c(OC)c1OC)-c1cc3c(cc1CC(CO)N(C)C2)OCO3 (stereo not shown) [A-V-a]
IC50 (KB cells): 1.5 µg/mL (≈ 3.87 µM)

COc1cc(C2c3cc4c(cc3C(N=[N+]=[N-])C3COC(=O)N23)OCO4)cc(OC)c1OC [D-X-b]
ED50 (concentration at which the growth inhibition was substantially 50% based on the control) (KB cells): < 0.3 µg/mL

COc1cc2c(c(OC)c1OC)-c1cc3c(cc1CC1CN(CC(=O)OC(C)(C)C)C(=O)N1C2)OCO3 (stereo not shown) [B-VII-b]
IC50 (KB cells): 1.7 µg/mL (≈ 3.32 µM)

COc1cc2c(c(OC)c1OC)-c1cc3c(cc1CC1CNC(=O)N1C2)OCO3 (stereo not shown) [B-VI-b]
IC50 (KB cells): < 0.3 µg/mL
Number of surviving mice (S-180 salcoma cells; 25 mg/kg): 2/7
Prolongation extent of life (S-180 salcoma cells; 25 mg/kg): 50%
Average days of the prolongation of life (S-180 salcoma cells; 25 mg/kg): 20.2 ± 4.2 days
Number of surviving mice (S-180 salcoma cells; 50 mg/kg): 0/7
Prolongation extent of life (S-180 salcoma cells; 50 mg/kg): 120%
Average days of the prolongation of life (S-180 salcoma cells; 50 mg/kg): 29.7 ± 3.9 days

COc1cc(C2c3cc4c(cc3C(N)C3COC(=O)N23)OCO4)cc(OC)c1OC [D-XI-b]
IC50 (KB cells): < 0.3 µg/mL

COc1cc(CN2C(=O)OCC2Cc2ccc3c(c2)OCO3)cc(OC)c1OC (stereo not shown) [A-III]
IC50 (KB cells): 35 µg/mL (≈ 87.2 µM)

COc1cc(CN2C(=O)NCC2Cc2ccc3c(c2)OCO3)cc(OC)c1OC (stereo not shown) [B-V]
IC50 (KB cells): 47 µg/mL (≈ 117 µM)

COc1cc2c(c(OC)c1OC)-c1cc3c(cc1CC1COC(=O)N1C2)OCO3 (stereo not shown) [A-IV-a]
ED50 (concentration at which the growth inhibition was substantially 50% based on the control) (KB cells): 47.0 µg/mL (≈ 118 µM)

COc1cc(C2c3cc4c(cc3CC3COC(=O)N32)OCO4)cc(OC)c1OC [D-I-a]
Number of surviving mice (S-180 salcoma cells; 25 mg/kg): 0/7
Prolongation extent of life (S-180 salcoma cells; 25 mg/kg): 62%
Average days of the prolongation of life (S-180 salcoma cells; 25 mg/kg): 21.9 ± 4.0 days
Number of surviving mice (S-180 salcoma cells; 50 mg/kg): 0/7
Prolongation extent of life (S-180 salcoma cells; 50 mg/kg): 48%
Average days of the prolongation of life (S-180 salcoma cells; 50 mg/kg): 20.0 ± 5.6 days

COc1cc2c(c(OC)c1OC)-c1cc3c(cc1CC(COC(C)=O)N(C)C2)OCO3 (stereo not shown) [A-VI-a]
IC50 (KB cells): 1.65 µg/mL (≈ 3.84 µM)
